# Reference: article PMC7582308, “Functional Characterization of a Dendrobium officinale Geraniol Synthase DoGES1 Involved in Floral Scent Formation” (International Journal of Molecular Sciences, 2020)
# Molecular target: T1, DoGES1 (Dendrobium officinale, UniProt A0A7H9SVV5)
# T1 construct: gene GES1
# T1 sequence (A0A7H9SVV5 1-582): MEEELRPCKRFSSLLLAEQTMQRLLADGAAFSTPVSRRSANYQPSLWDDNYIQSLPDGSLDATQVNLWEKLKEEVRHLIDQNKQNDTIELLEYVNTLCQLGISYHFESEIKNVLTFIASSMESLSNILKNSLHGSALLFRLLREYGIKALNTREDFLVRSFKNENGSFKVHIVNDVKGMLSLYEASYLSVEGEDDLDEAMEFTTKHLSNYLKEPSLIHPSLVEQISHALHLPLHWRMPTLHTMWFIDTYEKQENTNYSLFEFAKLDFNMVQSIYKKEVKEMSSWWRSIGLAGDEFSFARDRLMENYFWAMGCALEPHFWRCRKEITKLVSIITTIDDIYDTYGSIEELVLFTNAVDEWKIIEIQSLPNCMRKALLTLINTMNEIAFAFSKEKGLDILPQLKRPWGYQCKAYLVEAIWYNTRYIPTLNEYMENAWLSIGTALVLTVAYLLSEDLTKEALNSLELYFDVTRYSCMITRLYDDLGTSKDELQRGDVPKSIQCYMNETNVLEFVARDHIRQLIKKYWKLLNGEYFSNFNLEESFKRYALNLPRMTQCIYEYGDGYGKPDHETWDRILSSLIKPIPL
# Assay: GC-MS detection of geraniol product
# Type: biochemical
# Conditions: 10 mM GPP, 10 mM MgCl2, 5 mM dithiothreitol, MOPSO pH 7.0, 30 °C, 1 h
compound,measurement,value
CC(C)=CCC/C(C)=C/COP(=O)(O)OP(=O)(O)O [geranyl pyrophosphate],GC-MS detection of geraniol product,"After incubation with GPP as substrate for the synthesis of monoterpenes, recombinant DoGES1 proteins successfully yielded geraniol"
